Source: PubChem BioAssay (NCI)
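Growth conditions: 96-well plates. Treatment: test compound, 48 hours, 5 concentrations. Analysis: linear interpolation between bracketing concentrations; unreached endpoints set to highest concentration. Abbreviation: GI50, concentration required for 50% inhibition of growth. TGI: concentration producing complete growth inhibition.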

Columns and labels:
Assay in all cases: growth of human tumour cells (NCI), 48 h
786-0 renal = test system: 786-0 renal
A498 renal = test system: A498 renal
A549 NSCLC = test system: A549 NSCLC
ACHN renal = test system: ACHN renal
BT-549 breast = test system: BT-549 breast
CAKI-1 renal = test system: CAKI-1 renal
CCRF-CEM leukemia = test system: CCRF-CEM leukemia
COLO 205 colon = test system: COLO 205 colon
DU-145 prostate = test system: DU-145 prostate
EKVX NSCLC = test system: EKVX NSCLC
HCC-2998 colon = test system: HCC-2998 colon
HCT-116 colon = test system: HCT-116 colon
HCT-15 colon = test system: HCT-15 colon
HL-60(TB) leukemia = test system: HL-60(TB) leukemia
HOP-62 NSCLC = test system: HOP-62 NSCLC
HOP-92 NSCLC = test system: HOP-92 NSCLC
HS 578T breast = test system: HS 578T breast
HT29 colon = test system: HT29 colon
IGROV1 ovarian = test system: IGROV1 ovarian
K-562 leukemia = test system: K-562 leukemia
KM12 colon = test system: KM12 colon
LOX IMVI melanoma = test system: LOX IMVI melanoma
M14 melanoma = test system: M14 melanoma
MALME-3M melanoma = test system: MALME-3M melanoma
MCF7 breast = test system: MCF7 breast
MDA-MB-231 breast = test system: MDA-MB-231 breast
MDA-MB-435 = test system: MDA-MB-435
MDA-MB-468 breast = test system: MDA-MB-468 breast
MOLT-4 leukemia = test system: MOLT-4 leukemia
NCI-H226 lung = test system: NCI-H226 lung
NCI-H23 lung = test system: NCI-H23 lung
NCI-H460 lung = test system: NCI-H460 lung
NCI-H522 lung = test system: NCI-H522 lung
NCI/ADR-RES ovarian = test system: NCI/ADR-RES ovarian
OVCAR-3 ovarian = test system: OVCAR-3 ovarian
OVCAR-4 ovarian = test system: OVCAR-4 ovarian
OVCAR-5 ovarian = test system: OVCAR-5 ovarian
OVCAR-8 ovarian = test system: OVCAR-8 ovarian
PC-3 prostate = test system: PC-3 prostate
RPMI-8226 leukemia = test system: RPMI-8226 leukemia
RXF 393 renal = test system: RXF 393 renal
SF-268 CNS = test system: SF-268 CNS
SF-295 CNS = test system: SF-295 CNS
SF-539 CNS = test system: SF-539 CNS
SK-MEL-2 melanoma = test system: SK-MEL-2 melanoma
SK-MEL-28 melanoma = test system: SK-MEL-28 melanoma
SK-MEL-5 melanoma = test system: SK-MEL-5 melanoma
SK-OV-3 ovarian = test system: SK-OV-3 ovarian
SN12C renal = test system: SN12C renal
SNB-19 CNS = test system: SNB-19 CNS
SNB-75 CNS = test system: SNB-75 CNS
SW-620 colon = test system: SW-620 colon
T-47D breast = test system: T-47D breast
TK-10 renal = test system: TK-10 renal
U251 CNS = test system: U251 CNS
UACC-257 melanoma = test system: UACC-257 melanoma
UACC-62 melanoma = test system: UACC-62 melanoma
UO-31 renal = test system: UO-31 renal

For `Cc1ccc(S(=O)(=O)c2nc(S(=O)(=O)c3ccc(C)cc3)c(Cl)s2)cc1`, the GI50 (786-0 renal) was > 100 µM, the TGI (786-0 renal) was > 100 µM and the GI50 (A498 renal) was > 100 µM. For the same compound, the TGI (A498 renal) was > 100 µM, the GI50 (A549 NSCLC) was > 100 µM and the TGI (A549 NSCLC) was > 100 µM. The GI50 (ACHN renal) was > 100 µM, the TGI (ACHN renal) was > 100 µM and the GI50 (BT-549 breast) was > 100 µM. The TGI (BT-549 breast) was > 100 µM, the GI50 (CAKI-1 renal) was > 100 µM and the TGI (CAKI-1 renal) was > 100 µM. The GI50 (CCRF-CEM leukemia) was > 100 µM, the TGI (CCRF-CEM leukemia) was > 100 µM and the GI50 (COLO 205 colon) was > 100 µM. For the same compound, the TGI (COLO 205 colon) was > 100 µM, the GI50 (DU-145 prostate) was > 100 µM and the TGI (DU-145 prostate) was > 100 µM. For the same compound, the GI50 (EKVX NSCLC) was > 100 µM, the TGI (EKVX NSCLC) was > 100 µM and the GI50 (HCC-2998 colon) was > 100 µM. For the same compound, the TGI (HCC-2998 colon) was > 100 µM, the GI50 (HCT-116 colon) was > 100 µM and the TGI (HCT-116 colon) was > 100 µM. For the same compound, the GI50 (HCT-15 colon) was > 100 µM, the TGI (HCT-15 colon) was > 100 µM and the GI50 (HL-60(TB) leukemia) was > 100 µM. For the same compound, the TGI (HL-60(TB) leukemia) was > 100 µM, the GI50 (HOP-62 NSCLC) was > 100 µM and the TGI (HOP-62 NSCLC) was > 100 µM. For the same compound, the GI50 (HOP-92 NSCLC) was > 100 µM, the TGI (HOP-92 NSCLC) was > 100 µM and the GI50 (HS 578T breast) was > 100 µM. For the same compound, the TGI (HS 578T breast) was > 100 µM, the GI50 (HT29 colon) was > 100 µM and the TGI (HT29 colon) was > 100 µM. The GI50 (IGROV1 ovarian) was > 100 µM, the TGI (IGROV1 ovarian) was > 100 µM and the GI50 (K-562 leukemia) was > 100 µM. For the same compound, the TGI (K-562 leukemia) was > 100 µM, the GI50 (KM12 colon) was > 100 µM and the TGI (KM12 colon) was > 100 µM. For the same compound, the GI50 (LOX IMVI melanoma) was > 100 µM, the TGI (LOX IMVI melanoma) was > 100 µM and the GI50 (M14 melanoma) was > 100 µM. The TGI (M14 melanoma) was > 100 µM, the GI50 (MALME-3M melanoma) was > 100 µM and the TGI (MALME-3M melanoma) was > 100 µM. For the same compound, the GI50 (MCF7 breast) was > 100 µM, the TGI (MCF7 breast) was > 100 µM and the GI50 (MDA-MB-231 breast) was > 100 µM. For the same compound, the TGI (MDA-MB-231 breast) was > 100 µM, the GI50 (MDA-MB-435) was > 100 µM and the TGI (MDA-MB-435) was > 100 µM. The GI50 (MDA-MB-468 breast) was > 100 µM, the TGI (MDA-MB-468 breast) was > 100 µM and the GI50 (MOLT-4 leukemia) was > 100 µM. The TGI (MOLT-4 leukemia) was > 100 µM, the GI50 (NCI-H226 lung) was > 100 µM and the TGI (NCI-H226 lung) was > 100 µM. The GI50 (NCI-H23 lung) was > 100 µM, the TGI (NCI-H23 lung) was > 100 µM and the GI50 (NCI-H460 lung) was > 100 µM. For the same compound, the TGI (NCI-H460 lung) was > 100 µM, the GI50 (NCI-H522 lung) was > 100 µM and the TGI (NCI-H522 lung) was > 100 µM. For the same compound, the GI50 (NCI/ADR-RES ovarian) was > 100 µM, the TGI (NCI/ADR-RES ovarian) was > 100 µM and the GI50 (OVCAR-3 ovarian) was > 100 µM. The TGI (OVCAR-3 ovarian) was > 100 µM, the GI50 (OVCAR-4 ovarian) was > 100 µM and the TGI (OVCAR-4 ovarian) was > 100 µM. The GI50 (OVCAR-5 ovarian) was > 100 µM, the TGI (OVCAR-5 ovarian) was > 100 µM and the GI50 (OVCAR-8 ovarian) was > 100 µM. The TGI (OVCAR-8 ovarian) was > 100 µM, the GI50 (PC-3 prostate) was > 100 µM and the TGI (PC-3 prostate) was > 100 µM. The GI50 (RPMI-8226 leukemia) was > 100 µM, the TGI (RPMI-8226 leukemia) was > 100 µM and the GI50 (RXF 393 renal) was > 100 µM. For the same compound, the TGI (RXF 393 renal) was > 100 µM, the GI50 (SF-268 CNS) was > 100 µM and the TGI (SF-268 CNS) was > 100 µM. The GI50 (SF-295 CNS) was > 100 µM, the TGI (SF-295 CNS) was > 100 µM and the GI50 (SF-539 CNS) was > 100 µM. The TGI (SF-539 CNS) was > 100 µM, the GI50 (SK-MEL-2 melanoma) was > 100 µM and the TGI (SK-MEL-2 melanoma) was > 100 µM. The GI50 (SK-MEL-28 melanoma) was > 100 µM, the TGI (SK-MEL-28 melanoma) was > 100 µM and the GI50 (SK-MEL-5 melanoma) was > 100 µM. The TGI (SK-MEL-5 melanoma) was > 100 µM, the GI50 (SK-OV-3 ovarian) was > 100 µM and the TGI (SK-OV-3 ovarian) was > 100 µM. The GI50 (SN12C renal) was > 100 µM, the TGI (SN12C renal) was > 100 µM and the GI50 (SNB-19 CNS) was > 100 µM. The TGI (SNB-19 CNS) was > 100 µM, the GI50 (SNB-75 CNS) was > 100 µM and the TGI (SNB-75 CNS) was > 100 µM. The GI50 (SW-620 colon) was > 100 µM, the TGI (SW-620 colon) was > 100 µM and the GI50 (T-47D breast) was > 100 µM. For the same compound, the TGI (T-47D breast) was > 100 µM, the GI50 (TK-10 renal) was > 100 µM and the TGI (TK-10 renal) was > 100 µM. The GI50 (U251 CNS) was > 100 µM, the TGI (U251 CNS) was > 100 µM and the GI50 (UACC-257 melanoma) was > 100 µM. For the same compound, the TGI (UACC-257 melanoma) was > 100 µM, the GI50 (UACC-62 melanoma) was > 100 µM and the TGI (UACC-62 melanoma) was > 100 µM. For the same compound, the GI50 (UO-31 renal) was > 100 µM and the TGI (UO-31 renal) was > 100 µM.
